The assay concerns B6C3F1 mice, ip Sarcoma M5076, median survival T/C. Kind of assay: NCI In Vivo Anticancer Drug Screen. Data for tumor model Sarcoma M5076 (intraperitoneal) in B6C3F1 mice. Particulars: endpoint: median survival time, higher = longer survival. Summed up:
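Mice carrying the transplanted tumour received compound treatment. Survival was recorded, and each value is the treated-group measurement divided by that of the vehicle-dosed control group.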

The mark [1] stands for this setting: dose: 50.0 mg/kg/injection, schedule: Q04DX004 (ip), vehicle: water.
The mark [2] stands for this setting: dose: 50.0 mg/kg/injection, schedule: Q04DX004 (ip), vehicle: saline with Tween-80.
The mark [3] stands for this setting: dose: 100.0 mg/kg/injection, schedule: Q04DX004 (ip), vehicle: saline with Tween-80.
Where [4] appears, read: dose: 50.0 mg/kg/injection, schedule: Q04DX004 (ip), vehicle: Klucel (hydroxypropylcellulose) (HPC).
Setting [5] is: dose: 100.0 mg/kg/injection, schedule: Q04DX004 (ip), vehicle: Klucel (hydroxypropylcellulose) (HPC).
[6] abbreviates: dose: 200.0 mg/kg/injection, schedule: Q04DX004 (ip), vehicle: Klucel (hydroxypropylcellulose) (HPC).
The mark [7] stands for this setting: dose: 200.0 mg/kg/injection, schedule: Q04DX004 (ip), vehicle: saline with Tween-80.
Where [8] appears, read: dose: 400.0 mg/kg/injection, schedule: Q04DX004 (ip), vehicle: saline with Tween-80.

The text below walks through data of PubChem BioAssay AID292 (DTP/NCI, 2004).

Several values for one entry are separate records, joined by “and”; a condition that tells them apart may be missing. Equal entries are not always repeated. Toxic doses and inconclusive results are not listed.

`Nc1nc(=O)nc2[nH]c3c4cccc5cccc(c3nc12)c54` (tested in a mixture with another compound): the T/C reads like this: (dose: 18.75 mg/kg/injection, schedule: Q04DX004 (ip), vehicle: Klucel (hydroxypropylcellulose) (HPC)) 104 % of control; (dose: 37.5 mg/kg/injection, schedule: Q04DX004 (ip), vehicle: Klucel (hydroxypropylcellulose) (HPC)) 102 % of control; (dose: 75.0 mg/kg/injection, schedule: Q04DX004 (ip), vehicle: Klucel (hydroxypropylcellulose) (HPC)) 104 % of control; (dose: 150.0 mg/kg/injection, schedule: Q04DX004 (ip), vehicle: Klucel (hydroxypropylcellulose) (HPC)) 98 % of control; (dose: 300.0 mg/kg/injection, schedule: Q04DX004 (ip), vehicle: Klucel (hydroxypropylcellulose) (HPC)) 94 % of control.
In the case of `CN(C)CCOc1cccc2c1C(=O)c1ccccc1C2=O`, the T/C runs as follows: under setting [1], 90 % of control; (dose: 100.0 mg/kg/injection, schedule: Q04DX004 (ip), vehicle: water) 97 % of control.
As for `Cc1nnc2c3nccnc3c(Cl)nn12`, the T/C (dose: 15.0 mg/kg/injection, schedule: Q04DX004 (ip), vehicle: saline with Tween-80) is 102 % of control; the T/C (dose: 30.0 mg/kg/injection, schedule: Q04DX004 (ip), vehicle: saline with Tween-80) is 98 % of control; the T/C (dose: 60.0 mg/kg/injection, schedule: Q04DX004 (ip), vehicle: saline with Tween-80) is 101 % of control; the T/C (dose: 120.0 mg/kg/injection, schedule: Q04DX004 (ip), vehicle: saline with Tween-80) was 108 % of control.
Regarding `CC1=Nc2cc(N)nn2C(=O)C1`, the T/C runs as follows: under setting [2], 96 % of control; under setting [3], 99 % of control.
For the compound `COc1ccccc1-n1cc[n+](C)c1/C=N/O`, the T/C is 101 % of control (dose: 25.0 mg/kg/injection, schedule: Q04DX004 (ip), vehicle: saline) and 101 % of control (dose: 50.0 mg/kg/injection, schedule: Q04DX004 (ip), vehicle: saline).
On to `CC(=O)NC(CSC1=C2NC(=O)\C=C/C=C/C=C\C(C)C(O)CC(=O)/C(C)=C\CC(O)/C=C/C(C)C(O)C(C)C=C(C)C(=O)c3c(O)c(C)cc(c3C1=O)C2=O)C(=O)O` (configuration not stated), for which the T/C (dose: 1.25 mg/kg/injection, schedule: Q04DX004 (ip), vehicle: Klucel (hydroxypropylcellulose) (HPC)) is 100 % of control; the T/C (dose: 2.5 mg/kg/injection, schedule: Q04DX004 (ip), vehicle: Klucel (hydroxypropylcellulose) (HPC)) was 100 % of control; the T/C (dose: 5.0 mg/kg/injection, schedule: Q04DX004 (ip), vehicle: Klucel (hydroxypropylcellulose) (HPC)) is 101 % of control; the T/C (dose: 10.0 mg/kg/injection, schedule: Q04DX004 (ip), vehicle: Klucel (hydroxypropylcellulose) (HPC)) is 93 % of control; the T/C (dose: 20.0 mg/kg/injection, schedule: Q04DX004 (ip), vehicle: Klucel (hydroxypropylcellulose) (HPC)) is 100 % of control.
Take `Clc1cccc(N(C2=NCCS2)C2=NCCS2)c1`: the T/C was 107 % of control under setting [4]; 101 % of control under setting [5]; 101 % of control under setting [6]; 96 % of control (dose: 400.0 mg/kg/injection, schedule: Q04DX004 (ip), vehicle: Klucel (hydroxypropylcellulose) (HPC)); 92 % of control (dose: 800.0 mg/kg/injection, schedule: Q04DX004 (ip), vehicle: Klucel (hydroxypropylcellulose) (HPC)).
For `Cc1[nH]c(=O)[nH]c(=O)c1C=O`, the T/C is 100 % of control under setting [2], 101 % of control under setting [3], 98 % of control under setting [7] and 96 % of control under setting [8].
In the case of `O=C1NC2(CCCCC2)C(=O)N1CCN(CCCl)CCCl`, the T/C was 111 % of control (dose: 0.75 mg/kg/injection, schedule: Q01DX009 (ip), vehicle: saline with Tween-80); 113 % of control (dose: 1.5 mg/kg/injection, schedule: Q01DX009 (ip), vehicle: saline with Tween-80); 154 % of control (dose: 7.2 mg/kg/injection, schedule: Q01DX009 (ip), vehicle: saline with Tween-80); 166 % of control and 176 % of control (dose: 12.0 mg/kg/injection, schedule: Q01DX009 (ip), vehicle: saline with Tween-80); 244 % of control (dose: 20.0 mg/kg/injection, schedule: Q01DX009 (ip), vehicle: saline with Tween-80).
On to `Cc1ccc(C2C(C#N)C(=O)NC(=O)C2C#N)cc1` (configuration not stated), for which the T/C reads like this: under setting [4], 99 % of control; under setting [5], 99 % of control; under setting [6], 86 % of control.
Turning to `COC(=O)c1ccc(OCc2nc3ccccc3[nH]2)cc1`, the T/C was 95 % of control (dose: 25.0 mg/kg/injection, schedule: Q04DX004 (ip), vehicle: saline with Tween-80); 100 % of control under setting [2]; 95 % of control under setting [3]; 89 % of control under setting [7]; 90 % of control under setting [8].
Consider `O=C(Nc1ccc2ccccc2c1)C1C(=O)C(=O)N(c2ccc3ccccc3c2)C1=O` (configuration not stated), for which the T/C was 100 % of control under setting [4], 100 % of control under setting [5] and 93 % of control under setting [6].
Consider `O=CC(CO)CC(C=O)n1cnc2c(=O)[nH]cnc21` (configuration not stated), for which the T/C (dose: 37.0 mg/kg/injection, schedule: Q04DX004 (ip), vehicle: saline) was 104 % of control; the T/C (dose: 75.0 mg/kg/injection, schedule: Q04DX004 (ip), vehicle: saline) is 105 % of control; the T/C (dose: 300.0 mg/kg/injection, schedule: Q04DX004 (ip), vehicle: saline) was 124 % of control.
As for `Cc1ccc(NN=O)nc1`, the T/C reads like this: (dose: 3.13 mg/kg/injection, schedule: Q04DX004 (ip), vehicle: water) 113 % of control; (dose: 6.25 mg/kg/injection, schedule: Q04DX004 (ip), vehicle: water) 113 % of control; (dose: 25.0 mg/kg/injection, schedule: Q04DX004 (ip), vehicle: water) 160 % of control; under setting [1], 160 % of control.
On to `CCOC(=O)c1cc(-c2ccccc2)c(=O)c(OC)nc1-c1ccccc1`, for which the T/C was 87 % of control (dose: 18.75 mg/kg/injection, schedule: Q04DX004 (ip), vehicle: saline with Tween-80); 95 % of control (dose: 37.5 mg/kg/injection, schedule: Q04DX004 (ip), vehicle: saline with Tween-80); 93 % of control (dose: 75.0 mg/kg/injection, schedule: Q04DX004 (ip), vehicle: saline with Tween-80); 90 % of control (dose: 150.0 mg/kg/injection, schedule: Q04DX004 (ip), vehicle: saline with Tween-80).
`Nc1ncn(C2OC(CO)C(O)C2O)c(=O)n1` (configuration not stated): the T/C (dose: 0.38 mg/kg/injection, schedule: Q01DX009 (ip), vehicle: saline) was 100 % of control and 101 % of control; the T/C (dose: 0.75 mg/kg/injection, schedule: Q01DX009 (ip), vehicle: saline) was 109 % of control and 114 % of control; the T/C (dose: 1.5 mg/kg/injection, schedule: Q01DX009 (ip), vehicle: saline) was 112 % of control and 115 % of control; the T/C (dose: 25.0 mg/kg/injection, schedule: Q01DX009 (ip), vehicle: saline) was 150 % of control; the T/C (dose: 50.0 mg/kg/injection, schedule: Q01DX009 (ip), vehicle: saline) was 155 % of control and 159 % of control; the T/C (dose: 100.0 mg/kg/injection, schedule: Q01DX009 (ip), vehicle: saline) is 172 % of control.
